Laboratory results taken from ChEMBL document CHEMBL5465560, “Selectivity Literature for EUbOPEN Chemogenomic Library” (2024).

Tests used:
[1] = molecular target: Serine/threonine-protein kinase 32C (Homo sapiens) (UniProt Q86UX6); test: Selectivity interaction (KinomeScan (DiscoverX)) EUB0000229b STK32C; conditions: at 10 µM
[2] = molecular target: T1, Serine/threonine-protein kinase LATS1 (Homo sapiens) (UniProt O95835); test: Selectivity interaction (KinomeScan (DiscoverX)) EUB0000655a LATS1; conditions: at 10 µM
T1 sequence (whole entry): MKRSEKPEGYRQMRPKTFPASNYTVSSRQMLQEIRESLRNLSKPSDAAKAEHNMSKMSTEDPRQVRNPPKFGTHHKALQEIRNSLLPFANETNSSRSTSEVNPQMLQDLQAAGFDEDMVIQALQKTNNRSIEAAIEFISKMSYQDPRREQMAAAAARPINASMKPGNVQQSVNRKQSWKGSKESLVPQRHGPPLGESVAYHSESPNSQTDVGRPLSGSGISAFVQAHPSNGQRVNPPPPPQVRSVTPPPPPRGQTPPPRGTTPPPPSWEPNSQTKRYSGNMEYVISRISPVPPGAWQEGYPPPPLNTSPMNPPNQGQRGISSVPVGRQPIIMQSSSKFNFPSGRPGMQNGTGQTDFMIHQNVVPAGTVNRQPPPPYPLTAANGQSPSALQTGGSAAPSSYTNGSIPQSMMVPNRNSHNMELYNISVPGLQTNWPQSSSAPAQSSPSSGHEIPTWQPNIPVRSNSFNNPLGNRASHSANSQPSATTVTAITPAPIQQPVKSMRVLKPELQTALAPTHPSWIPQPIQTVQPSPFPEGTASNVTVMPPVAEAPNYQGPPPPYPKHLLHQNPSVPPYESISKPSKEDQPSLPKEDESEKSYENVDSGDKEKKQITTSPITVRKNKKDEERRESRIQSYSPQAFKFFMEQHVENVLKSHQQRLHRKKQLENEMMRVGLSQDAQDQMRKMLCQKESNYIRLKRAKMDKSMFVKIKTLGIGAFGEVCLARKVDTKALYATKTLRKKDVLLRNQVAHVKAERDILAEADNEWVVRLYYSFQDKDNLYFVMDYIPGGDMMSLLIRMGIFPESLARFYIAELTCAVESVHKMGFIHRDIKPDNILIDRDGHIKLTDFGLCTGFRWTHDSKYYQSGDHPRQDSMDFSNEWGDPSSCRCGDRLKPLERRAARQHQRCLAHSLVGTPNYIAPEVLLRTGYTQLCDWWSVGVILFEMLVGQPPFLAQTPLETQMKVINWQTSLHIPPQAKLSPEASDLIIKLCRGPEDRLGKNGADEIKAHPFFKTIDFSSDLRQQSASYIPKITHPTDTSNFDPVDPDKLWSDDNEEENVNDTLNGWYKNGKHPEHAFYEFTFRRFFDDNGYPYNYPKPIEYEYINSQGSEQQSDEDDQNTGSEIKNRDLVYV

[3] = molecular target: Phosphatidylinositol 4,5-bisphosphate 3-kinase catalytic subunit gamma isoform (Homo sapiens) (UniProt P48736); test: Selectivity interaction (ProQinase) EUB0000171b PIK3CG
Sequence of Phosphatidylinositol 4,5-bisphosphate 3-kinase catalytic subunit gamma isoform (Homo sapiens) (P48736 whole entry, looked up, canonical isoform): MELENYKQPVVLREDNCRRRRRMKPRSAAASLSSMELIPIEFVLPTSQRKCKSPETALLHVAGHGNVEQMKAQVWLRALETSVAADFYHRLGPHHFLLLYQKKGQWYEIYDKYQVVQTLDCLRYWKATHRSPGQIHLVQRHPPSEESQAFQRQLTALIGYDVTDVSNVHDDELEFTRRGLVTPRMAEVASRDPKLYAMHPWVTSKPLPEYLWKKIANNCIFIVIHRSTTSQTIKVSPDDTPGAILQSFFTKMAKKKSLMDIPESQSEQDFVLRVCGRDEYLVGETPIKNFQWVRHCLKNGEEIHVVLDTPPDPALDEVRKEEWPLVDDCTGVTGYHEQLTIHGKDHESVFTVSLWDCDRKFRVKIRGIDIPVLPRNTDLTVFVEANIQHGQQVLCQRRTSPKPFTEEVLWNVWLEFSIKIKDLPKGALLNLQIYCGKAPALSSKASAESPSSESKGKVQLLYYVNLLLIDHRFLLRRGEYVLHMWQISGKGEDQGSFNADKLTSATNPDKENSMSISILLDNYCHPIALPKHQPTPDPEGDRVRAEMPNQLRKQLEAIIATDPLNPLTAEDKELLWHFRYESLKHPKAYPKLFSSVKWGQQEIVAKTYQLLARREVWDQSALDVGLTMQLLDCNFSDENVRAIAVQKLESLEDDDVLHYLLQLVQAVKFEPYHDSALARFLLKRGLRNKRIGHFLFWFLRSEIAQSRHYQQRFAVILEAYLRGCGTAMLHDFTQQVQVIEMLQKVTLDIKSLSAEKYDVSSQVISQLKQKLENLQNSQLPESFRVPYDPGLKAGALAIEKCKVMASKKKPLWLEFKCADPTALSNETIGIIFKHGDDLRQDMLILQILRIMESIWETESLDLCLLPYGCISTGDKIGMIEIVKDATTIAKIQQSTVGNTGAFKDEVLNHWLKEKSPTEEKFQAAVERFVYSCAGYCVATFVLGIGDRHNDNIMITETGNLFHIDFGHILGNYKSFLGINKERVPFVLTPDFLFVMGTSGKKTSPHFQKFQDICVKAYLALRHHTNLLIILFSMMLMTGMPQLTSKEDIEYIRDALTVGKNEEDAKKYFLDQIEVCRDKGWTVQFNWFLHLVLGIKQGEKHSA

[4] = molecular target: Calcium/calmodulin-dependent protein kinase type 1 (Homo sapiens) (UniProt Q14012); test: Selectivity interaction (ActivX KiNativ screen (kinase selectivity in THP-1 cell lysates)) EUB0000639a CAMK1; type: subcellular; conditions: lysate, at 0.04 µM
Sequence of Calcium/calmodulin-dependent protein kinase type 1 (Homo sapiens) (Q14012 whole entry, looked up): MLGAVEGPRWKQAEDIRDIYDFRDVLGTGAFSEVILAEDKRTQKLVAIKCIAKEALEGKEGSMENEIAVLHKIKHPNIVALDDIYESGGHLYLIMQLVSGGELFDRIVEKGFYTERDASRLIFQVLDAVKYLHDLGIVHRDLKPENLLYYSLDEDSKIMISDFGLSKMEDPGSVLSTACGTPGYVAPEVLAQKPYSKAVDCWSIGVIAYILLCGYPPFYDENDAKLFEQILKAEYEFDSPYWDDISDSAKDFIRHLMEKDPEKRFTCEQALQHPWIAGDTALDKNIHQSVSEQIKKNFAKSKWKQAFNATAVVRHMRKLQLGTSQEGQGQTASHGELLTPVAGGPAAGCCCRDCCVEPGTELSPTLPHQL

[5] = molecular target: [Pyruvate dehydrogenase (acetyl-transferring)] kinase isozyme 1, mitochondrial (Homo sapiens, UniProt Q15118); test: Selectivity interaction (SelectScreen profiling (Invitrogen)) EUB0000607a PDK1; conditions: at 2 µM
[6] = molecular target: STE20/SPS1-related proline-alanine-rich protein kinase (Homo sapiens) (UniProt Q9UEW8); test: Selectivity interaction (KinomeScan (DiscoverX)) EUB0001049a STK39; conditions: at 1 µM
[7] = molecular target: T2, Ankyrin repeat and protein kinase domain-containing protein 1 (Homo sapiens) (UniProt Q8NFD2); conditions: at 10 µM
T2 sequence (whole entry): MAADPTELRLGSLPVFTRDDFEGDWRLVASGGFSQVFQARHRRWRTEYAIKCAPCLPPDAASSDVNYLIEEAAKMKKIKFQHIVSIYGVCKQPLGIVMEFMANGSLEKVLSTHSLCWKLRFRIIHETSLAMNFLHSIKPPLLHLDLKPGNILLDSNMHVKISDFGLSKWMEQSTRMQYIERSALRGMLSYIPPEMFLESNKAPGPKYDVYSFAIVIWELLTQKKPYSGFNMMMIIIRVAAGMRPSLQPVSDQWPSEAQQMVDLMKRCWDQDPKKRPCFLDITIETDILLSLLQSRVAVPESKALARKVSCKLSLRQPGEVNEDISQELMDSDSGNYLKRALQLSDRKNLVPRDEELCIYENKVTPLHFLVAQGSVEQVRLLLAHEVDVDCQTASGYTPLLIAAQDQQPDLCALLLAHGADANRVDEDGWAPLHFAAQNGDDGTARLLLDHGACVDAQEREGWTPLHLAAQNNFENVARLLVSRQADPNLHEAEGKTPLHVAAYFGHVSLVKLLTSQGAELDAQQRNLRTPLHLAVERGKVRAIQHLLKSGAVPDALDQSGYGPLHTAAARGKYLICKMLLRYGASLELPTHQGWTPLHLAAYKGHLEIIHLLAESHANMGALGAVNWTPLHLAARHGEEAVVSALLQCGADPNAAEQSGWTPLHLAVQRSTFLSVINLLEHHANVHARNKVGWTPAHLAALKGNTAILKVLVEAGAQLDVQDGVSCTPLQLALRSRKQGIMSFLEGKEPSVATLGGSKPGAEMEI

[8] = tested on: Epidermal growth factor receptor (Homo sapiens), P00533 [UNDEFINED MUTATION]; test: Selectivity interaction (KinomeScan (DiscoverX)) EUB0001619a EGFR; conditions: at 1 µM
Sequence of Epidermal growth factor receptor (Homo sapiens), P00533 [UNDEFINED MUTATION] (P00533 whole entry, looked up, change not shown): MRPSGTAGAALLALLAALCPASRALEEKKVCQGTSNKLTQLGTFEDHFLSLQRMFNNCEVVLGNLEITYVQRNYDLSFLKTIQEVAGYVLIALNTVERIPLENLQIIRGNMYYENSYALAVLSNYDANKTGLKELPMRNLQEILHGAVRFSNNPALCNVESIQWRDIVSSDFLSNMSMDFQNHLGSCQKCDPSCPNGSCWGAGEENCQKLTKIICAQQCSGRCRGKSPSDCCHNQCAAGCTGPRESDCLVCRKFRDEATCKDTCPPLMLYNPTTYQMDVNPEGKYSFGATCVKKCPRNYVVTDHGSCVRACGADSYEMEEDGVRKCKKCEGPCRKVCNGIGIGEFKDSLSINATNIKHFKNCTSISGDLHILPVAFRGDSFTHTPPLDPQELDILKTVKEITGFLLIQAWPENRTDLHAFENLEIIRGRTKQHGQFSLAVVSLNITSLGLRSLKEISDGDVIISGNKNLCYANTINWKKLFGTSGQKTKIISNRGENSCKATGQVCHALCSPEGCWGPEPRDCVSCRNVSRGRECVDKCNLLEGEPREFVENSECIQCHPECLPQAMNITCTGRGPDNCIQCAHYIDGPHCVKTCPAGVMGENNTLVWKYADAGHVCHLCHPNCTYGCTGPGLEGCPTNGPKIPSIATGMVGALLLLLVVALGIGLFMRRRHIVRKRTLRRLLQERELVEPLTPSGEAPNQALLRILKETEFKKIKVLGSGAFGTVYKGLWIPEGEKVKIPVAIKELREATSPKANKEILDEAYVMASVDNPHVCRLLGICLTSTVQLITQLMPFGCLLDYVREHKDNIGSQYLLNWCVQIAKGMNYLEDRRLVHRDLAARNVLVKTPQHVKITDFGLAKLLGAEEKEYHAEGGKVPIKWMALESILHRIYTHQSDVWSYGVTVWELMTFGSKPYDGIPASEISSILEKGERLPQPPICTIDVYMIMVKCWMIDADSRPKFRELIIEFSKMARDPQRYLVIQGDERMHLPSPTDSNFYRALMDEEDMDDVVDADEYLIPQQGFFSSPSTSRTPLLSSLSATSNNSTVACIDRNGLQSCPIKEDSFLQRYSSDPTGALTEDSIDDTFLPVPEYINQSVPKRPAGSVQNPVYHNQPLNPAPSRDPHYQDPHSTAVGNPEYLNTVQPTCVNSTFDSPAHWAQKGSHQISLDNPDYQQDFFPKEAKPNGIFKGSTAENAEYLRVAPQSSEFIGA

Sequence of Serine/threonine-protein kinase 32C (Homo sapiens) (Q86UX6 whole entry): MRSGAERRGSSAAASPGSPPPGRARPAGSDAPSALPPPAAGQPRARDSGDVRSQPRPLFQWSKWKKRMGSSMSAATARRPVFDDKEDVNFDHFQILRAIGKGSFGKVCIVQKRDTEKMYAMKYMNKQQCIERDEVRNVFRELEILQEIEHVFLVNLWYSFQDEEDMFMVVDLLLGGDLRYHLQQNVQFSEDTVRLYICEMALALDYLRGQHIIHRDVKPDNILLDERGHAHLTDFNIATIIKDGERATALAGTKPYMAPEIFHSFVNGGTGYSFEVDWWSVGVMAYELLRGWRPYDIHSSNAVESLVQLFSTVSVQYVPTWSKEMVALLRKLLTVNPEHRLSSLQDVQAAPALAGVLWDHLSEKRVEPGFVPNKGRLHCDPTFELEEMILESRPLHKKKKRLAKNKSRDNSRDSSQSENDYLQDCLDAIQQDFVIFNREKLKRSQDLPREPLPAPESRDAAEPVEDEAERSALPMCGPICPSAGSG

## COc1cc(N(C)c2ccnc3ccc(C(F)(F)F)cc23)cc(OC)c1OC
[1]
  % binding: 99%

## CN(C)CCOc1ccc(-c2nc(-c3ccncc3)c(-c3ccc4c(c3)CC/C4=N\O)[nH]2)cc1
[2]
  % of control: 87%

## C=CC(=O)Nc1cccc(C(=O)Nc2ccc(Nc3cc(-c4[nH]c(SC)nc4C)ccn3)cc2)c1
[3]; at 1 µM
  % of control: 176%
[3]; at 5 µM
  % of control: 156%

## CC[C@@H]1[C@H](F)C(=O)N[C@@H]1COc1nccc2cc(C(N)=O)c(OC)cc12 [ZIMLOVISERTIB]
[4]
  % of inhibition: -6.2%

## CNC(=O)Nc1ccc(-c2nc(N3CC4CCC(C3)O4)c3cnn(C4CCC5(CC4)OCCO5)c3n2)cc1
[5]
  % of inhibition: 3%

## COc1cc(Nc2nc(C)cc(-c3cnn4nc(OC)ccc34)n2)cc(C(F)(F)F)c1
[6]
  % of control: 64%

## COCC(=O)NC/C=C/c1ccc2ncnc(Nc3ccc(Oc4ccc(C)nc4)c(C)c3)c2c1 [CP-724714]
[7]
  % of control: 60%

## N#Cc1cccc(-c2c[nH]c3ncnc(N4CCOCC4)c23)c1
[8]
  % of control: 83%
